Reference: patent publication US20170050957A1, “4-AMINO-6-(HETEROCYCLIC)PICOLINATES AND 6-AMINO-2-(HETEROCYCLIC)PYRIMIDINE-4-CARBOXYLATES AND THEIR USE AS HERBICIDES” (Dow AgroSciences LLC, priority 2013, published 2017)
Read-outs that look alike come from different tables or passages of the source.

How the values were obtained:
[1] = system: Key Broadleaf Weed and Crop Species; experiment: Post-emergent Test II herbicidal activity (Table 15); type: in vivo; details: post-emergence, 336 h, 14 d; for pest or weed control at 35 g/ha: 35 g ai/ha; for pest or weed control at 70 g/ha: 70 g ai/ha; for pest or weed control at 140 g/ha: 140 g ai/ha
How it was run: (§1)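 Greenhouse-grown seedlings at first/second true leaf receive a track spray at 187 L/ha, using a highest rate plus two-fold serial dilutions down to 1/16×. Watering is by subirrigation to avoid wash-off. Percent injury (0-100) is judged by eye at 14 d against untreated plants.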

[2] = system: Key Grass and Sedge Weeds as well as Grass Crops; experiment: Post-emergent Test II herbicidal activity (Table 16); type: in vivo; details: post-emergence, 336 h, 14 d; for pest or weed control at 35 g/ha: 35 g ai/ha; for pest or weed control at 70 g/ha: 70 g ai/ha; for pest or weed control at 140 g/ha: 140 g ai/ha
How it was run: as §1

[3] = Abutilon theophrasti, velvetleaf (Abutilon theophrasti), read-out: Visual Growth Reduction (%) 14 Days After Application, ABUTH
[4] = Amaranthus retroflexus, redroot pigweed (Amaranthus retroflexus), read-out: Visual Growth Reduction (%) 14 Days After Application, AMARE
[5] = Brassica napus, oilseed rape, canola (Brassica napus), read-out: Visual Growth Reduction (%) 14 Days After Application, BRSNN
[6] = Chenopodium album, lambsquarters (Chenopodium album), read-out: Visual Growth Reduction (%) 14 Days After Application, CHEAL
[7] = Euphorbia heterophylla, wild poinsettia (Euphorbia heterophylla), read-out: Visual Growth Reduction (%) 14 Days After Application, EPHHL
[8] = Helianthus annuus, sunflower (Helianthus annuus), read-out: Visual Growth Reduction (%) 14 Days After Application, HELAN
[9] = Cyperus esculentus, yellow nutsedge (Cyperus esculentus), read-out: Visual Growth Reduction (%) 14 Days After Application, CYPES
[10] = Echinochloa crus-galli, barnyardgrass (Echinochloa crus-galli), read-out: Visual Growth Reduction (%) 14 Days After Application, ECHCG
[11] = Oryza sativa, rice (Oryza sativa), read-out: Visual Growth Reduction (%) 14 Days After Application, ORYSA
[12] = Setaria faberi, giant foxtail (Setaria faberi), read-out: Visual Growth Reduction (%) 14 Days After Application, SETFA
[13] = Triticum aestivum, wheat, spring (Triticum aestivum), read-out: Visual Growth Reduction (%) 14 Days After Application, TRZAS
[14] = Zea mays, maize, corn (Zea mays), read-out: Visual Growth Reduction (%) 14 Days After Application, ZEAMX

| SMILES | melting point | pest or weed control at 35 g/ha [1, 3] | pest or weed control at 70 g/ha [1, 3] | pest or weed control at 140 g/ha [1, 3] | pest or weed control at 35 g/ha [1, 4] | pest or weed control at 70 g/ha [1, 4] | pest or weed control at 140 g/ha [1, 4] | pest or weed control at 35 g/ha [1, 5] | pest or weed control at 70 g/ha [1, 5] | pest or weed control at 140 g/ha [1, 5] | pest or weed control at 35 g/ha [1, 6] | pest or weed control at 70 g/ha [1, 6] | pest or weed control at 140 g/ha [1, 6] | pest or weed control at 35 g/ha [1, 7] | pest or weed control at 70 g/ha [1, 7] | pest or weed control at 140 g/ha [1, 7] | pest or weed control at 35 g/ha [1, 8] | pest or weed control at 70 g/ha [1, 8] | pest or weed control at 140 g/ha [1, 8] | pest or weed control at 35 g/ha [2, 9] | other results |
| --- | --- | --- | --- | --- | --- | --- | --- | --- | --- | --- | --- | --- | --- | --- | --- | --- | --- | --- | --- | --- | --- |
| COc1c(N)nc(-c2ccc(Cl)c3occc23)nc1C(=O)O [Compound 2.22] | 204 to 206 °C | 30 to 44% | 30 to 44% | 45 to 59% | 95 to 100% | 95 to 100% | 95 to 100% | 0 to 29% | 45 to 59% | 60 to 74% | 95 to 100% | 95 to 100% | 95 to 100% | 0 to 29% | 0 to 29% | 0 to 29% | 75 to 84% | 85 to 94% | 95 to 100% | 0 to 29% | pest or weed control at 70 g/ha [2, 9]: 0 to 29%; pest or weed control at 140 g/ha [2, 9]: 0 to 29%; pest or weed control at 35 g/ha [2, 10]: 0 to 29%; pest or weed control at 70 g/ha [2, 10]: 0 to 29%; pest or weed control at 140 g/ha [2, 10]: 0 to 29%; pest or weed control at 35 g/ha [2, 11]: 0 to 29%; pest or weed control at 70 g/ha [2, 11]: 0 to 29%; pest or weed control at 140 g/ha [2, 11]: 0 to 29%; pest or weed control at 35 g/ha [2, 12]: 0 to 29%; pest or weed control at 70 g/ha [2, 12]: 0 to 29%; pest or weed control at 140 g/ha [2, 12]: 0 to 29%; pest or weed control at 35 g/ha [2, 13]: 0 to 29%; pest or weed control at 70 g/ha [2, 13]: 0 to 29%; pest or weed control at 140 g/ha [2, 13]: 0 to 29%; pest or weed control at 35 g/ha [2, 14]: 0 to 29%; pest or weed control at 70 g/ha [2, 14]: 0 to 29%; pest or weed control at 140 g/ha [2, 14]: 0 to 29% |
| COC(=O)c1nc(-c2cccc3occc23)c(F)c(N)c1Cl [Compound 2.15] | 100 to 103 °C | 45 to 59% | 75 to 84% | 95 to 100% | 95 to 100% | 95 to 100% | 95 to 100% | 45 to 59% | 75 to 84% | 85 to 94% | 95 to 100% | 95 to 100% | 95 to 100% | 0 to 29% | 0 to 29% | 0 to 29% | 45 to 59% | 75 to 84% | 75 to 84% | 0 to 29% | pest or weed control at 70 g/ha [2, 9]: 0 to 29%; pest or weed control at 140 g/ha [2, 9]: 0 to 29%; pest or weed control at 35 g/ha [2, 10]: 0 to 29%; pest or weed control at 70 g/ha [2, 10]: 45 to 59%; pest or weed control at 140 g/ha [2, 10]: 75 to 84%; pest or weed control at 35 g/ha [2, 11]: 0 to 29%; pest or weed control at 70 g/ha [2, 11]: 0 to 29%; pest or weed control at 140 g/ha [2, 11]: 0 to 29%; pest or weed control at 35 g/ha [2, 12]: 0 to 29%; pest or weed control at 70 g/ha [2, 12]: 0 to 29%; pest or weed control at 140 g/ha [2, 12]: 0 to 29%; pest or weed control at 35 g/ha [2, 13]: 0 to 29%; pest or weed control at 70 g/ha [2, 13]: 0 to 29%; pest or weed control at 140 g/ha [2, 13]: 0 to 29%; pest or weed control at 35 g/ha [2, 14]: 95 to 100%; pest or weed control at 70 g/ha [2, 14]: 95 to 100%; pest or weed control at 140 g/ha [2, 14]: 95 to 100% |
